# Results taken from patent publication US10273283B2, “Modified integrin polypeptides, modified integrin polypeptide dimers, and uses thereof” (THE CHILDREN'S MEDICAL CENTER CORPORATION, priority 2014, dated 2019).
# Ends that are not written are not given here.
# Legend:
# integrin αvβ6 headpiece = target: T1, integrin αvβ6 headpiece (Homo sapiens, UniProt P06756+P18564, I287C/M430C); test: Saturation binding of fluorescence probe to αvβ6 headpiece by fluorescence anisotropy; settings: buffer at indicated pH, FIG. 2C
# T1 construct: The αv headpiece (residues 1-594) with M400C mutation was followed by a 3C protease site; β6 headpiece residues 1-474 with I270C or β3 headpiece residues 1-472 with Q267C were followed by the 3C site; 3C protease site (C, cleaved yes); ACID coiled-coil (C, cleaved yes); Strep-II tag (C, cleaved yes); His tag (C, cleaved yes); 3C site (C, cleaved yes); BASE coiled-coil (C, cleaved yes); made in house; host or cells: HEK293s Gnt I- cells
# Method: A fluorescence probe for integrin αvβ6, the sequence of which is FITC-[…] (SEQ ID NO: 68), was synthesized. […] By competition binding assay, the affinities of Different Ligands were Measured.
# Fluorescence anisotropy was in 150 mM NaCl, 1 mM Mg^2+/Ca^2+, 20 mM HEPES, pH 7.4 or buffer at indicated pH with 5 nM fluorescence probe (FITC-pro-TGF-β3 peptide, FITC-[…] (SEQ ID NO: 68)). Binding affinities were calculated as described in Ref. 23. In saturation binding assays, the anisotropy of the fluorescence probe was measured while αvβ6 headpiece (starting at 2.67 μM) or αvβ3 headpiece (starting at 75 μM) was serially diluted in 3-fold decrements. Competition binding assays used 200 nM αvβ6 or 4 μM αvβ3 headpiece, 5 nM of fluorescence probe, and competing peptide serially diluted in 3-fold decrement from 500 μM to 0.5 nM.
# αvβ3 headpiece = target: T2, αvβ3 headpiece (Homo sapiens, UniProt P05106+P06756, M430C/Q293C); test: Competition binding with FITC-[…] by fluorescence anisotropy, αvβ3 headpiece; settings: FIG. 1D
# T2 construct: The αv headpiece (residues 1-594) with M400C mutation was followed by a 3C protease site; β6 headpiece residues 1-474 with I270C or β3 headpiece residues 1-472 with Q267C were followed by the 3C site; 3C protease site (C, cleaved yes); ACID coiled-coil (C, cleaved yes); Strep-II tag (C, cleaved yes); His tag (C, cleaved yes); 3C site (C, cleaved yes); BASE coiled-coil (C, cleaved yes); made in house; host or cells: HEK293s Gnt I- cells
# Method: (§1) Ligands bind to the integrin headpiece, which contains the α-subunit β-propeller domain and thigh domain, and the β-subunit βI, hybrid, PSI, and EGF1 domain. […] (SEQ ID NO: 68), peptide affinity for the αvβ6 and αvβ3 headpiece was measured with fluorescence anisotropy.
# (§2) Binding affinities were calculated as described in Ref. 23. […] Competition binding assays used 200 nM αvβ6 or 4 μM αvβ3 headpiece, 5 nM of fluorescence probe, and competing peptide serially diluted in 3-fold decrement from 500 μM to 0.5 nM.
# αvβ6 headpiece = target: T3, αvβ6 headpiece (Homo sapiens, UniProt P06756+P18564, I287C/M430C); test: Competition binding with FITC-[…] by fluorescence anisotropy, αvβ6 headpiece; settings: FIG. 1C
# T3 construct: The αv headpiece (residues 1-594) with M400C mutation was followed by a 3C protease site; β6 headpiece residues 1-474 with I270C or β3 headpiece residues 1-472 with Q267C were followed by the 3C site; 3C protease site (C, cleaved yes); ACID coiled-coil (C, cleaved yes); Strep-II tag (C, cleaved yes); His tag (C, cleaved yes); 3C site (C, cleaved yes); BASE coiled-coil (C, cleaved yes); made in house; host or cells: HEK293s Gnt I- cells
# Method: as §1, §2
Sequence,Effect of pH on affinity of αvβ6 for the peptide (integrin αvβ6 headpiece),Fold lower affinity for αvβ3 than for αvβ6 (αvβ3 headpiece),Fold lower affinity for αvβ6 than the pro-TGF-β1/β3 peptides (αvβ6 headpiece)
"GRGDLGRLK [pro-TGF-β3 nonapeptide, GRGDLGRLK (SEQ ID NO: 75)]",sharp decrease in affinity between pH 7 and 6,"1,000 fold",
TSGDQKTIK [pro-TGF-β2 peptide],,,"1,000 fold"
